Results published in US11691992B2 (Anacor Pharmaceuticals, Inc., priority 2017, dated 2023).
Where two headings read alike, the source gives them in different places.

Experiments:
Format in all cases: cell-based
[1] = system: IL3000 T. congolense (drug sensitive) strain; test: In vitro Alamar Blue 72 h drug sensitivity assay for T. congolense; details: Trypanosoma congolense; bloodstream form, 69 h + 3 h resazurin, 34° C.; classes A-C; read-out: IC50: I Org. Growth T. congolense IL-3000, 3 d
Procedure, shortened: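 Bloodstream-form trypanosomes in HMI medium with 20% bovine serum, exposed to compound for 69 h at 34 °C, 5% CO2, then resazurin for 3 h more. Fluorescence read at 536/588 nm. IC50 from 11-point sigmoidal dose-response curves, at least three independent runs.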

[2] = system: TdTomato-modified T. cruzi (CL strain) in Vero cells; test: In vitro IC50 measurement of T. cruzi amastigote killing using TdTomato-modified T. cruzi (CL strain); details: Trypanosoma cruzi, 72 h, fluorescence, read-out: IC50: I Org. amastigote Growth T. cruzi CL TdTomato, 3 d
Procedure, shortened: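 Vero cells were infected with tdTomato-expressing CL-strain parasites and dosed at 5 uM–5 nM. Fluorescence (ex 544/em 612 nm) was read at day 0 and again after 72 h at 37 °C, with day 0 values subtracted. IC50 and IC90 came from nonlinear regression.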

[3] = system: L. infantum MHOM/MA(BE)/67 amastigotes in primary peritoneal mouse macrophages; test: Leishmania infantum intracellular amastigote assay in mouse macrophages; details: Macrophage, 120 h
Procedure, shortened: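 Amastigotes harvested from infected hamster spleen infected primary peritoneal mouse macrophages (5×10^5 amastigotes/well, 2 h, 37 °C). Compounds then present 5 d at 37 °C, 5% CO2. Parasite burden counted by microscopy after Giemsa staining, as % of untreated controls; IC50 from sigmoidal variable-slope fit.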

[4] = system: bloodstream forms of T. b. rhodesiense STIB 900; test: T. brucei rhodesiense STIB 900 growth inhibition assay; details: Trypanosoma brucei, 72 h, read-out: IC50: I Org. Growth T. brucei rhodesiense STIB 900, 3 d [uM]
Procedure, shortened: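 Bloodstream-form STIB 900 (10^4/well) were cultured in supplemented MEM with 15% horse serum and compound (90 to 0.123 μg/ml, 3-fold steps) for 72 h at 37 °C, 5% CO2. Viability was read by Alamar Blue fluorescence (ex 536/em 588 nm) after a further 2-4 h.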

[5] = read-out: Inhibition of Organism Growth in Leishmania infantum MHOM/MA/BE/67, 5 d [uM]

| Compound | IC50 [1] [nM] | IC50 [2] [nM] | IC50 ([3]; amastigotes in primary peritoneal mouse macrophages, 5 d, Giemsa staining, read-out: Inhibition of Organism Growth in Leishmania infantum MHOM/MA/BE/67, 5 d) [µM] | IC50 [4] [µM] | IC50 [3, 5] [µM] |
| --- | --- | --- | --- | --- | --- |
| CC1OB(O)c2cc(NC(=O)c3cn(-c4ccccc4)nn3)ccc21 (stereo not drawn) [Example 2] | < 100 | < 600 | – | – | – |
| O=C(Nc1ccc2c(c1)B(O)OC21CCC1)c1cn(-c2ccccc2)nn1 [Example 3, N-(1-hydroxy-1H-spiro[benzo[c][1,2]oxaborole-3,1′-cyclobutan]-6-yl)-1-phenyl-1H-1,2,3-triazole-4-carboxamide] | 100 to 300 | 1100 to 10000 | – | – | – |
| Cc1c(C(=O)Nc2ccc3c(c2)B(O)OC32CCC2)nnn1-c1ccccc1 [Example 4, N-(1-hydroxy-1H-spiro[benzo[c][1,2]oxaborole-3,1′-cyclobutan]-6-yl)-5-methyl-1-phenyl-1H-1,2,3-triazole-4-carboxamide] | 100 to 300 | 600 to 1000 | – | – | – |
| CC1OB(O)c2cc(NC(=O)c3cn(-c4ccc(F)cc4)nn3)ccc21 (stereo not drawn) [Example 5] | 100 to 300 | 600 to 1000 | – | – | – |
| Cc1c(C(=O)Nc2ccc3c(c2)B(O)OC3C)nnn1-c1ccc(F)cc1 (stereo not drawn) [Example 6, 1-(4-fluorophenyl)-N-(1-hydroxy-3-methyl-1,3-dihydrobenzo[c][1,2]oxaborol-6-yl)-5-methyl-1H-1,2,3-triazole-4-carboxamide] | 100 to 300 | 600 to 1000 | – | – | – |
| O=C(Nc1ccc2c(c1)B(O)OC21CCC1)c1cn(-c2ccc(F)cc2)nn1 [Example 7, 1-(4-fluorophenyl)-N-(1-hydroxy-1H-spiro[benzo[c][1,2]oxaborole-3,1′-cyclobutan]-6-yl)-1H-1,2,3-triazole-4-carboxamide] | 310 to 100000 | 1100 to 10000 | – | – | – |
| O=C(Nc1ccc2c(c1)B(O)OC21CCC1)c1cn(-c2cccnc2)nn1 [Example 8, N-(1-hydroxy-1H-spiro[benzo[c][1,2]oxaborole-3,1′-cyclobutan]-6-yl)-1-(pyridin-3-yl)-1H-1,2,3-triazole-4-carboxamide] | 310 to 100000 | 1100 to 10000 | – | – | – |
| Cc1c(C(=O)Nc2ccc3c(c2)B(O)OC32CCC2)nnn1-c1ccc(F)cc1 [Example 9, 1-(4-fluorophenyl)-N-(1-hydroxy-1H-spiro[benzo[c][1,2]oxaborole-3,1′-cyclobutan]-6-yl)-5-methyl-1H-1,2,3-triazole-4-carboxamide] | 310 to 100000 | 1100 to 10000 | – | – | – |
| Cc1ccc(-n2cc(C(=O)Nc3ccc4c(c3)B(O)OC4)nn2)cc1 [Example 10, N-(1-hydroxy-1,3-dihydrobenzo[c][1,2]oxaborol-6-yl)-1-(p-tolyl)-1H-1,2,3-triazole-4-carboxamide] | < 100 | < 600 | – | – | – |
| Cc1ccc(-n2nnc(C(=O)Nc3ccc4c(c3)B(O)OC4)c2C)cc1 [Example 11, N-(1-hydroxy-1,3-dihydrobenzo[c][1,2]oxaborol-6-yl)-5-methyl-1-(p-tolyl)-1H-1,2,3-triazole-4-carboxamide] | < 100 | 1100 to 10000 | – | – | – |
| CC1OB(O)c2cc(NC(=O)c3cn(-c4cccnc4)nn3)ccc21 (stereo not drawn) [Example 12, N-(1-hydroxy-3-methyl-1,3-dihydrobenzo[c][1,2]oxaborol-6-yl)-1-(pyridin-3-yl)-1H-1,2,3-triazole-4-carboxamide] | < 100 | 600 to 1000 | – | – | – |
| Cc1ccc(-n2nnc(C(=O)Nc3ccc4c(c3)B(O)OC4C)c2C)cc1 (stereo not drawn) [Example 13, N-(1-hydroxy-3-methyl-1,3-dihydrobenzo[c][1,2]oxaborol-6-yl)-5-methyl-1-(p-tolyl)-1H-1,2,3-triazole-4-carboxamide] | 100 to 300 | 600 to 1000 | – | – | – |
| Cc1c(C(=O)Nc2ccc3c(c2)B(O)OC3C)nnn1-c1cccnc1 (stereo not drawn) [Example 14] | < 100 | 1100 to 10000 | – | – | – |
| Cc1ccc(-n2cc(C(=O)Nc3ccc4c(c3)B(O)OC43CCC3)nn2)cc1 [Example 15] | 100 to 300 | 1100 to 10000 | – | – | – |
| Cc1ccc(-n2nnc(C(=O)Nc3ccc4c(c3)B(O)OC43CCC3)c2C)cc1 [Example 16, N-(1-hydroxy-1H-spiro[benzo[c][1,2]oxaborole-3,1′-cyclobutan]-6-yl)-5-methyl-1-(p-tolyl)-1H-1,2,3-triazole-4-carboxamide] | 310 to 100000 | 1100 to 10000 | – | – | – |
| Cc1c(C(=O)Nc2ccc3c(c2)B(O)OC32CCC2)nnn1-c1cccnc1 [Example 17, N-(1-hydroxy-1H-spiro[benzo[c][1,2]oxaborole-3,1′-cyclobutan]-6-yl)-5-methyl-1-(pyridin-3-yl)-1H-1,2,3-triazole-4-carboxamide] | 310 to 100000 | 1100 to 10000 | – | – | – |
| Cc1ccc(-n2cc(C(=O)Nc3ccc4c(c3)B(O)OC4C)nn2)cc1 (stereo not drawn) [Example 18, N-(1-hydroxy-3-methyl-1,3-dihydrobenzo[c][1,2]oxaborol-6-yl)-1-(p-tolyl)-1H-1,2,3-triazole-4-carboxamide] | < 100 | < 600 | – | – | – |
| COc1ccc(-n2nnc(C(=O)Nc3ccc4c(c3)B(O)OC4C)c2C)cc1 (stereo not drawn) [Example 19, N-(1-hydroxy-3-methyl-1,3-dihydrobenzo[c][1,2]oxaborol-6-yl)-1-(4-methoxyphenyl)-5-methyl-1H-1,2,3-triazole-4-carboxamide] | 100 to 300 | 600 to 1000 | – | – | – |
| COc1ccc(-n2nnc(C(=O)Nc3ccc4c(c3)B(O)OC43CCC3)c2C)cc1 [Example 20, N-(1-hydroxy-1H-spiro[benzo[c][1,2]oxaborole-3,1′-cyclobutan]-6-yl)-1-(4-methoxyphenyl)-5-methyl-1H-1,2,3-triazole-4-carboxamide] | 310 to 100000 | 1100 to 10000 | – | – | – |
| COc1ccc(-n2cc(C(=O)Nc3ccc4c(c3)B(O)OC4)nn2)cc1 [Example 21, N-(1-hydroxy-1,3-dihydrobenzo[c][1,2]oxaborol-6-yl)-1-(4-methoxyphenyl)-1H-1,2,3-triazole-4-carboxamide] | < 100 | < 600 | – | – | – |
| COc1ccc(-n2cc(C(=O)Nc3ccc4c(c3)B(O)OC4C)nn2)cc1 (stereo not drawn) [Example 22, N-(1-hydroxy-3-methyl-1,3-dihydrobenzo[c][1,2]oxaborol-6-yl)-1-(4-methoxyphenyl)-1H-1,2,3-triazole-4-carboxamide] | 100 to 300 | < 600 | – | – | – |
| CC1OB(O)c2cc(NC(=O)c3cn(-c4ccccn4)nn3)ccc21 (stereo not drawn) [Example 23, N-(1-hydroxy-3-methyl-1,3-dihydrobenzo[c][1,2]oxaborol-6-yl)-1-(pyridin-2-yl)-1H-1,2,3-triazole-4-carboxamide] | < 100 | < 600 | – | – | – |
| Cc1c(C(=O)Nc2ccc3c(c2)B(O)OC3C)nnn1-c1ccccn1 (stereo not drawn) [Example 24, N-(1-hydroxy-3-methyl-1,3-dihydrobenzo[c][1,2]oxaborol-6-yl)-5-methyl-1-(pyridin-2-yl)-1H-1,2,3-triazole-4-carboxamide] | < 100 | < 600 | – | – | – |
| COc1ccc(-n2cc(C(=O)Nc3ccc4c(c3)B(O)OC43CCC3)nn2)cc1 [Example 25, N-(1-hydroxy-1H-spiro[benzo[c][1,2]oxaborole-3,1′-cyclobutan]-6-yl)-1-(4-methoxyphenyl)-1H-1,2,3-triazole-4-carboxamide] | 310 to 100000 | 600 to 1000 | – | – | – |
| O=C(Nc1ccc2c(c1)B(O)OC21CCC1)c1cn(-c2ccccn2)nn1 [Example 26, N-(1-hydroxy-1H-spiro[benzo[c][1,2]oxaborole-3,1′-cyclobutan]-6-yl)-1-(pyridin-2-yl)-1H-1,2,3-triazole-4-carboxamide] | 310 to 100000 | 1100 to 10000 | – | – | – |
| O=C(Nc1ccc2c(c1)B(O)OC2)c1cn(-c2ccc(F)cc2)nn1 [Example 60, 1-(4-Fluorophenyl)-N-(1-hydroxy-1,3-dihydrobenzo[c][1,2]oxaborol-6-yl)-1H-1,2,3-triazole-4-carboxamide] | < 100 | – | < 3 | – | – |
| O=C(Nc1ccc2c(c1)B(O)OC2)c1nnn(-c2ccccc2)c1C(F)(F)F [Example 68, N-(1-hydroxy-1,3-dihydrobenzo[c][1,2]oxaborol-6-yl)-1-phenyl-5-(trifluoromethyl)-1H-1,2,3-triazole-4-carboxamide] | – | – | – | < 0.1 | < 3 |
| Cc1c(C(=O)Nc2ccc3c(c2)B(O)OC3)nnn1-c1ccccc1 [Example 89, A-(1-hydroxy-1,3-dihydrobenzo[c][1,2]oxaborol-6-yl)-5-methyl-1-phenyl-1H-1,2,3-triazole-4-carboxamide] | – | – | – | < 0.1 | 20 to 100 |
| COc1ccc(-n2nnc(C(=O)Nc3ccc4c(c3)B(O)OC4)c2C)cc1 [Example 91, N-(1-hydroxy-1,3-dihydrobenzo[c][1,2]oxaborol-6-yl)-1-(4-methoxyphenyl)-5-methyl-1H-1,2,3-triazole-4-carboxamide] | 100 to 300 | – | – | – | – |
